Test results: patent publication US9125930B2, “EGFR aptamer inhibitor for use in therapy and diagnosis” (CONSIGLIO NAZIONALE DELLE RICERCHE, priority 2010, dated 2015)

Assays:
A549 cells [1] = assay: Apoptosis assay by PI staining and FACS; type: cell-based, human; set-up: dose or concentration left out as unconfirmed; details: A549, 24 hs or 48 hs
Procedure: For apoptosis assay, DNA content analysis was performed by staining with propidium iodide (PI) and analyzing cells by flow cytometry (FACS).
[…] Cells were incubated with 2 μg/ml propidium iodide (PI, Sigma, St. Louis, Mo.) for 30 min at 4° C. and recovered. The relative proportion of cells with DNA content indicative of apoptosis (ipoploid) was determined by FACS.

EGFR = EGFR (Homo sapiens, UniProt P00533); assay: Immunoblot of EGF-dependent EGFR phosphorylation in A549 cells; type: cell-based; set-up: endogenous in cells; host or cells: A549; details: 200 nM aptamer, following 5 min of EGFR stimulation
Procedure: […] The aptamers were subjected to a short denaturation-renaturation step (85° C. for 5 min, snap-cooled on ice for 2 min, and allowed to warm up to 37° C.) before each treatment. To prepare cell extracts, cells were washed twice in ice-cold PBS, and lysed in buffer A (50 mM Tris-HCl pH 8.0 buffer containing 150 mM NaCl, 1% Nonidet P-40, 2 mg/ml aprotinin, 1 mg/ml pepstatin, 2 mg/ml leupeptin, 1 mM Na3VO4). Protein concentration was determined by the Bradford assay using bovine serum albumin as the standard. The cell lysates were subjected to SDS-PAGE. Gels were electroblotted into polyvinylidene difluoride membranes (Millipore Co., Bedford, Mass.), and filters were probed with the indicated primary antibodies: anti-EGFR and anti-phospho-EGFR (Tyr1062), anti-phospho-44/42 MAP kinase (E10) (also indicated as p-Erk), anti-phospho-Akt, anti-Akt and anti-phospho-STAT3 (Tyr705), anti-ErbB2 (all from Cell Signaling, Beverly, Mass., United States); anti-Erk1, anti-EGFR, anti-ErbB3, anti-ErbB4 (C-16) (Santa Cruz Biotechnology, California, United States); anti-α-αtubulin (DM 1A) (Sigma, St. Louis, Mo.).
Proteins were visualized with peroxidase-conjugated secondary antibodies using the enhanced chemiluminescence system (GE Healthcare Bio-Sciences, Uppsala, Sweden). […]

A431 tumors = assay: Tumor growth in A431 mouse xenograft; type: in vivo; details: 200 pmoles intratumoral, three times a week for two weeks
Procedure: Athymic nude mice (nu/nu) were maintained in a sterile environment according to guidelines for Animal Care. Mice were inoculated with either 3×10^6 (in 100 μl) in vitro propagated A431 cells subcutaneously injected into each flank. Approximately 24 non-necrotic tumors for each tumor type, of about 1 cm in diameter, were randomly divided into three groups of eight mice per treatment group as follows: group 1, no treatment; group 2, treated with scrambled RNA as a negative control (200 pmols/injection); group 3, treated with CL4 42-81 (200 pmols/injection). Compounds were injected intra-tumorally in 100-1 μl volumes three times a week for two weeks. Day 0 marks the first day of injection. The aptamers may also be administered systemically, in particular when optimized by addition of polyethylene glycol (PEG).
The volume injections are small enough to preclude the compounds being forced inside the cells due to a nonspecific high-pressure injection. Tumors were measured every 3 days with calipers in three dimensions. The following formula was used to calculate tumor volume: VT=(W×L×H)×0.5236 (W, the shortest dimension; L, the longest dimension; H, the intermediate dimension). The growth curves are plotted as the means tumor volume±s.e.m. Statistical analysis of tumor size data was conducted using a one-way ANOVA. A P-value of 0.05 or less was considered to indicate a significant difference. […]

A549 cells [2] = assay: Cell viability assay, A549 cells; type: cell-based, human; details: dose-dependent experiments, 0.1-10 μM
Procedure: Cell viability was assessed with CellTiter 96® AQueous One Solution Cell Proliferation Assay (Promega, Madison, Wis.) according to according to the supplier's instructions. […] The optical density (OD) was measured using a Multilabel Counter (Bio-Rad) at a wavelength of 490 nm and cell viability was calculated by the following formula: Cell viability (%)=(OD treated cells/OD control cells)×100%. FACS Analysis

A549 cells [3] = assay: Binding of [32P]-labeled aptamer on A549 cells; set-up: species or system human; details: binding to A549 target cells
Procedure: Binding experiments were performed with 5′-[^32P]-labeled RNA. For labeling 2′-F-Py RNAs were 5′-end dephosphorylated using bacterial alcaline phosphatase (Invitrogen, Carlsbad, Calif.) before [^32P]-5′-end-labeled using T4 kinase (Invitrogen) and γ-[^32P]-ATP (6×10^3 Ci/mmol, GE Healthcare Bio-Sciences, Uppsala, Sweden) according to the supplier's instructions.
For binding experiments on cells, 3.5×10^4 cells were plated in 24-well plates in triplicate and were incubated with CL4 42-81 aptamer the scrambled sequence used as a negative control at 100 nM concentration in 200 μl of DMEM serum free for 20 min at RT in the presence of 100 μg/ml polyinosine as a nonspecific competitor (Sigma, St. Louis, Mo.). After five washings with 500 μl DMEM, bound sequences were recovered in 300 μl of SDS 1%, and the amount of radioactivity recovered was counted.

With “scrambled aptamer: scrambled aptamer used as negative control: 5′ UUCGUACCGGGUAGGUUGGCUUGCACAUAGAACGUGUCA 3′ (SEQ ID NO: 2) (listed as RNA, chemistry not given here) [reference compound]” the “effect on percentage of apoptotic cells” value (A549 cells [1]) was “No effect”, the “inhibition of EGF-dependent phosphorylation of EGFR” value (EGFR) was “No effect” and the tumor volume (A431 tumors) was “not observed”.

`COc1cc2ncnc(Nc3ccc(F)c(Cl)c3)c2cc1OCCCN1CCOCC1` [gefitinib, reference compound] was tested, and the “sensitivity of A549 cell viability” value (A549 cells [2]) was “resistant”.

B1: CL4: entire 92 nt aptamer generated by differential cell-SELEX on A549 cells (SEQ ID NO: 4), parent of CL4 42-81 (nucleic acid)
chain: GGGAGACAAGAAUAAACGCUCAACGACACGUUGCCAGCCGGAGCCUUAGUAACGUGCUUUGAUGUCGAUUCGACAGGAGGCUCACAACAGGC
modifications: listed as RNA, chemistry not given here
Molecule B1 has a Kd (A549 cells [3]) of 46 nM.
